In assay [1] the test system is chloroquine-resistant W2 P. falciparum strain. The assay can be described thus: In vitro anti-plasmodial assay (HRP2 ELISA), W2. In kind it is cell-based, Plasmodium falciparum. Conditions: for IC50: 72 h, HRP2 ELISA, mean of five experiments, read-out: IC50 (μM ± SD) W2. How it is done:
(§1) Parasites were grown in A-positive human blood (Etablissement Français du Sang, Marseille, France) under controlled atmospheric conditions that consisted of 10% O2, 5% CO2, and 85% N2 at 37 °C with a humidity of 95%.
(§2) In vitro anti-plasmodial assay: The two P. falciparum strains 3D7 and W2 were synchronized twice with sorbitol before use. The clonality of these strains was verified both in our laboratory and in an independent laboratory from the Worldwide Anti-malarial Resistance Network (WWARN) by PCR genotyping of the polymorphic genetic markers msp1 and msp2 and microsatellite loci. The compounds were re-suspended in methanol or DMSO 5% (v/v) and then diluted in methanol to obtain final concentrations ranging from 0.008 to 500 μg/mL (final concentration of 0.5% of methanol or DMSO). […] The plates were incubated for 72 h at 37 °C in controlled atmospheric conditions 5% CO2, 10% O2, and […]. After thawing the plates, haemolysed cultures were homogenized by vortexing the plates. Both the success of the drug susceptibility assay and the appropriate volume of haemolysed culture to use for each assay were determined for each clinical isolate during a preliminary HRP2 ELISA. Both the pre-test and subsequent ELISA assays were performed using a commercial kit (Malaria Ag Celisa, ref KM2159, Cellabs PTY LTD, Brookvale, Australia) according to the manufacturer’s recommendation. The optical density (OD) of each sample was measured with a spectrophotometer (Safire 2, Tecan, Lyon, France). […] The anti-plasmodial in vitro assay was performed five times for each product. The IC50 values represented the mean value calculated from five experiments. According to Hout, a selectivity index (SI) was based on the ratio between anti-parasitic and cytotoxic activities. In the case of our study, a SI was calculated between non-tumorigenic cell line 184B5 and parasites 3D7 or W2 and/or MCF10A and these two parasites.

The test system of assay [2] is Plasmodium falciparum 3D7 and W2 strains. The assay can be described thus: In vitro anti-plasmodial assay, both strains. In kind it is cell-based. The method, then: as §1, §2
In the next assay the target is T1, Aurora B (Homo sapiens, UniProt Q96GD4).
T1 construct: purchased Promega
The assay is described as follows: In vitro kinase assay (ADP-Glo), Aurora B. In kind it is biochemical. The settings on record: ± standard deviation, n = 2. The method, then: (§3) In vitro kinase assay: The Aurora A and B kinase assays were carried out using the Promega ADP-Glo based Kinase Activity Profiling system. The protocols for the Aurora A/(Myelin Basic Protein (MBP) and Aurora B/MBP assay kits were according to those recommended by the suppliers. The concentration range used was from 20 μM–39.1 nM in 384-well plates. The luminescent output from the kinase assay was read on a Biotek Synergy H4 plate reader.
(ADP-Glo first removes unused ATP, then detects ADP through luciferase.)

The next assay has as its system MCF7. The assay is described as follows: SRB cell proliferation assay, MCF7. In kind it is cell-based, human. How it is done:
(§4) In vitro anticancer study: The in vitro anti-proliferative tests were carried out as described previously, using aliquots of the cell lines used therein. Briefly, HeLa, MDA-MB-231 and MDA-MB-468, MCF7, and 184B5 and MCF 10A cell lines were purchased from ATCC. The identity of the cell lines presented in this study were verified by short tandem repeat profiling by Genetica DNA Laboratories (www.celllineauthentication.com) (April 8, 2015). MCF10A was grown in DMEM F12 medium supplemented with 0.02 μg/mL epidermal growth factor, 10% FBS, 10 μg/mL insulin and […] hydrocortisone. MDA-MB-468 were grown in DMEM supplemented with 10% FBS and antibiotics cocktail (100 μg/mL streptomycin, 100 units/mL penicillin and 250 ng/mL amphotericin B). SRB cell proliferation assays were carried out as previously described, with some minor modifications. The concentration range for all tested cell lines were from 100–0.39 μg/mL for extracts and 100–0.39 μM for pure compounds. […] All experiments were carried out at least twice.

The subject of the next assay is MDA-MB-231 cells. The assay can be described thus: Annexin V staining / IncuCyte apoptosis and proliferation assay. Format: cell-based, human. How it is done: Annexin V staining: Cell death mechanism and cell proliferation assays were analysed using the IncuCyte Apoptosis Assay method using the Annexin V Green reagent (Essen Biosciences, Ann Arbor, MI, USA) and the IncuCyte S3 and IncuCyte ZOOM software (Version 2018B, Bohemia, NY, USA) according to supplier’s protocol. Statistical analysis was carried out in Graph Pad Prism 5. All experiments were carried out at least twice.

A further assay deals with T2, Aurora A (Homo sapiens, UniProt O14965).
T2 construct: purchased Promega
T2 sequence (O14965 1-403): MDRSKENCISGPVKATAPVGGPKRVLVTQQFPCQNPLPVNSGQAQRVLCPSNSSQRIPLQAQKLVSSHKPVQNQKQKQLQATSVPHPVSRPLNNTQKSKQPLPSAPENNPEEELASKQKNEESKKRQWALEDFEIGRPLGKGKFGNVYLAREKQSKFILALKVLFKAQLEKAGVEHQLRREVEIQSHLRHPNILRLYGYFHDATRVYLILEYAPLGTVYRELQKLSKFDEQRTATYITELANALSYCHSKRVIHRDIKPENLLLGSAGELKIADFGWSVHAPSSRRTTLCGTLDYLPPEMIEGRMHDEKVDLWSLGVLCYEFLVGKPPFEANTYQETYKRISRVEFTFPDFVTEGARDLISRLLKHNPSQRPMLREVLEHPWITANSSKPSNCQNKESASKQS
The assay is described as follows: In vitro kinase assay (ADP-Glo), Aurora A. Format: biochemical. Conditions: ± standard deviation, n = 2. How it is done: as §3

A further assay has as its system MDA-MB-231. The assay is described as follows: SRB cell proliferation assay, MDA-MB-231. In kind it is cell-based, human. The method, then: as §4
In assay [3] the test system is chloroquine-susceptible 3D7 P. falciparum strain. The assay can be described thus: In vitro anti-plasmodial assay (HRP2 ELISA), 3D7. In kind it is cell-based, Plasmodium falciparum. The settings on record: for IC50: 72 h, HRP2 ELISA, mean of five experiments, read-out: IC50 (μM ± SD) 3D7. How it is done:
as §1, §2
For orientation: ELISA stands for enzyme-linked immunosorbent assay.

A further assay deals with 184B5. The assay can be described thus: SRB cell proliferation assay, 184B5 non-cancer cells. Format: cell-based, human. Conditions: for IC50: Homo sapiens, 184B5, read-out: IC50 (μM ± SD) 184B5. How it is done: as §4
In assay [4] the test system is HeLa, MDA-MB231, MDA-MB-468, MCF7, 184B5 and MCF10A cell lines. The assay is described as follows: SRB cell proliferation assay, whole panel of cell lines. Format: cell-based, human. The settings on record: Homo sapiens; cancer and non-cancer cell lines; read-out: IC50 values, range over the cell lines examined. The method, then:
as §4

Where two headings read alike, the source gives them in different places. Where only a bound is given, the exact number is not on record here.

Results on 1 compound are retold here after PMC7465040, “Cytotoxic and Anti-Plasmodial Activities of Stephania dielsiana Y.C. Wu Extracts and the Isolated Compounds” (Molecules, 2020).

T1 sequence (Q96GD4 whole entry): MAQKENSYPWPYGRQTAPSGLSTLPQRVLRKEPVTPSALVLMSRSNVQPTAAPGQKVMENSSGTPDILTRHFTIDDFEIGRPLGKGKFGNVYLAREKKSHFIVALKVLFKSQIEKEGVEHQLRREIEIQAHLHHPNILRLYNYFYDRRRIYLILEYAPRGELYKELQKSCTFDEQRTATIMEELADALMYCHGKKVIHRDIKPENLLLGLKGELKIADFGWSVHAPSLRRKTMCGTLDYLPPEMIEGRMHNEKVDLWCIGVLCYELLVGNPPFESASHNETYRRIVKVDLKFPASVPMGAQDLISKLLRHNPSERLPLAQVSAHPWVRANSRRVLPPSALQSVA

As for `COc1cccc2c1C(=O)c1nccc3cc4c(c-2c13)OCO4` [Oxostephanine 1, oxostephanine], the IC50 in [1] is 216 ± 31.5 µM; in assay [1] (Plasmodium falciparum, W2, 72 h), 216 to 226 µM; on Aurora B it was 0.952 ± 0.467 µM; in the assay with MCF7 (Homo sapiens, MCF7, Table 2A, SRB, 72 h, read-out: IC50 (μM ± SD) MCF7), 4.35 ± 1.2 µM; at Aurora A it was 0.422 ± 0.13 µM; in the assay on MDA-MB-231 (Homo sapiens, MDA-MB-231, Table 2A, SRB, 72 h, read-out: IC50 (μM ± SD) MDA-MB-231) it was 2.67 ± 0.29 µM. In addition, the IC50 in [3] is 63.9 ± 18.4 µM; in [3] (Plasmodium falciparum, 3D7, 72 h) it was 63.9 to 276 µM; in the assay with 184B5 (Table 2A, SRB, 72 h), 1.66 ± 0.56 µM; in the assay with 184B5 (Table 3, non-cancer cell line), 1.66 ± 0.56 µM; in [4], 1.66 to 4.35 µM. The “SI W2 184B5” value in [1] (Table 3, selectivity index between 184B5 and parasites W2) came to 0.007. Moreover, the “Anti-plasmodial activity against both 3D7 and W2 (in words)” value in assay [2] is recorded as “not active”. The “Selectivity index (SI) 184B5 versus MCF7” value with MCF7 (Table 2B, non-cancer 184B5 vs cancer MCF7) stood at 0.38. Also, the “Selectivity index (SI) MCF10A versus MCF7” value in the assay on MCF7 (Table 2B, non-cancer MCF10A vs cancer MCF7) came out at 0.57. Besides, in the assay with MDA-MB-231 cells (MDA-MB-231), the “Time to inhibition of proliferation” value is given as at most 12 h. Further, the “Apoptotic effect compared to camptothecin” value in the assay with MDA-MB-231 cells (MDA-MB-231, 10 μM, 1-way ANOVA p < 0.05) was “much stronger apoptotic effect”. Besides, the “Time to start of apoptosis (Annexin V)” value in the assay on MDA-MB-231 cells (MDA-MB-231, post-treatment) is on record as at most 16 h. Besides, in the assay on MDA-MB-231 (Table 2B, non-cancer 184B5 vs cancer MDA-MB-231), the “Selectivity index (SI) 184B5 versus MDA-MB-231” value came out at 0.62. For the same compound, the “Selectivity index (SI) MCF10A versus MDA-MB-231” value in the assay with MDA-MB-231 (Table 2B, non-cancer MCF10A vs cancer MDA-MB-231) is listed as 0.93. Moreover, in assay [3] (Table 3, selectivity index between 184B5 and parasites 3D7), the “SI 3D7 184B5” value is given as 0.026. In [3] (Table 3, selectivity index between MCF10A and parasites 3D7), the “SI 3D7 MCF10A” value is recorded as 0.039. For the same compound, in the assay on 184B5 (ratio of IC50), the “Increase in effectiveness compared with stephanine (3), 184B5” value was about 4 fold.

What is called IC50 is the point on the concentration scale where inhibition reaches its midpoint.
